Test results taken from publication PMC4457528, “Identification of Novel Small Molecule Inhibitors of Oncogenic RET Kinase” (PLoS ONE, 2015).
Where two headings read alike, the source gives them in different places.

How the values were obtained:
Assay in all cases: KinomeScan kinase panel, single concentration 10 µM
Type in all cases: binding
KinomeScan kinase panel [1] = molecular target: T1, KinomeScan kinase panel (Homo sapiens, UniProt P00533, G719S); details: EGFR(G719S), 10 µM
T1 construct: purchased DiscoveRx (KinomeScan)

KinomeScan kinase panel [2] = molecular target: T2, KinomeScan kinase panel (Homo sapiens, UniProt P29322); details: EPHA8, 10 µM; read-out: score (%)
T2 construct: purchased DiscoveRx (KinomeScan)
T2 sequence (P29322 28-1005): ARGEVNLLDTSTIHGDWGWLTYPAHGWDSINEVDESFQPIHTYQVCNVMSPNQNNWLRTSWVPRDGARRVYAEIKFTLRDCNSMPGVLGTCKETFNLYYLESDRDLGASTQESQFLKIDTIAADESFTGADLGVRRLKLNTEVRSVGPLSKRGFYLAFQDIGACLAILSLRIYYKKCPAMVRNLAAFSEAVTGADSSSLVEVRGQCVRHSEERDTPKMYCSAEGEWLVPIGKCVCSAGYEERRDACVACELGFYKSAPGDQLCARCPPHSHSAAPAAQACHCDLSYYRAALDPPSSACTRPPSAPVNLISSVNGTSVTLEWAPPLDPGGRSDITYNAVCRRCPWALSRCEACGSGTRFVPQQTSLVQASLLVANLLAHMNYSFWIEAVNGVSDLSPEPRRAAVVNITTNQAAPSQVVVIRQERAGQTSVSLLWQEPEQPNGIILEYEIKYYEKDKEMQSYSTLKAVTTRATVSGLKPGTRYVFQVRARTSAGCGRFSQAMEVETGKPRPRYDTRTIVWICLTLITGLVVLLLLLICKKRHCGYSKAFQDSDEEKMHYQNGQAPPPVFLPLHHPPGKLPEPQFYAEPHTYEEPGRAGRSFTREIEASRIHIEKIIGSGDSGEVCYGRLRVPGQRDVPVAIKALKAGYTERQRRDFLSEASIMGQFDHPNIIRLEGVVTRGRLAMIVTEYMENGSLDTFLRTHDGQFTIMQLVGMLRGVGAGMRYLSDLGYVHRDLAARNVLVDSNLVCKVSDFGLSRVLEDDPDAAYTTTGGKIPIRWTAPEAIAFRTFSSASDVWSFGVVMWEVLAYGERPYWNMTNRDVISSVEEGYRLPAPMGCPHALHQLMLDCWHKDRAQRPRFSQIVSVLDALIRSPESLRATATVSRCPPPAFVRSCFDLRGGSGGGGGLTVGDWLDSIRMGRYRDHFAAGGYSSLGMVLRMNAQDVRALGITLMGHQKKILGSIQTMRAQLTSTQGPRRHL

KinomeScan kinase panel [3] = molecular target: T3, KinomeScan kinase panel (Homo sapiens, UniProt Q9UEE5); details: DRAK1, 10 µM; read-out: score (%)
T3 construct: purchased DiscoveRx (KinomeScan)
T3 sequence (Q9UEE5 1-414): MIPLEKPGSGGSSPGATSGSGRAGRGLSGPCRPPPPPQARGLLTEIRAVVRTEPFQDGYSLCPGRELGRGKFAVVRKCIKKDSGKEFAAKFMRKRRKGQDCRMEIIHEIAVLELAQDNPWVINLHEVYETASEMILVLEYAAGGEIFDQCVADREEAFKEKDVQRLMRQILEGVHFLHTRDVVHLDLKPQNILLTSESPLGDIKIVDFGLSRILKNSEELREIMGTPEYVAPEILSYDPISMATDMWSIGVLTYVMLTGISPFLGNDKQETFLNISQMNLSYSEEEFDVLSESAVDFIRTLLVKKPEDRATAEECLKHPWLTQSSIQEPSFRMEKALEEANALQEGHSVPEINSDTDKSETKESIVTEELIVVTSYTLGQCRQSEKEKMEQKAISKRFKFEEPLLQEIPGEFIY

KinomeScan kinase panel [4] = molecular target: T4, KinomeScan kinase panel (Homo sapiens, UniProt P00519, E255K); details: 10 µM, read-out: score (%)
T4 construct: purchased DiscoveRx (KinomeScan)

KinomeScan kinase panel [5] = molecular target: T5, KinomeScan kinase panel (Homo sapiens, UniProt P00519, T315I); details: 10 µM, read-out: score (%)
T5 construct: purchased DiscoveRx (KinomeScan)

KinomeScan kinase panel [6] = molecular target: T6, KinomeScan kinase panel (Homo sapiens, UniProt Q5VT25); details: MRCKA, 10 µM; read-out: score (%)
T6 construct: purchased DiscoveRx (KinomeScan)

KinomeScan kinase panel [7] = molecular target: T7, KinomeScan kinase panel (Homo sapiens, UniProt P00519, H396P); details: 10 µM, read-out: score (%)
T7 construct: purchased DiscoveRx (KinomeScan)

KinomeScan kinase panel [8] = molecular target: T8, KinomeScan kinase panel (Homo sapiens, UniProt Q9HBH9); details: MKNK2, 10 µM; read-out: score (%)
T8 construct: purchased DiscoveRx (KinomeScan)

KinomeScan kinase panel [9] = molecular target: T9, KinomeScan kinase panel (Homo sapiens, UniProt Q9BWU1); details: CDK11, 10 µM
T9 construct: purchased DiscoveRx (KinomeScan)

KinomeScan kinase panel [10] = molecular target: T10, KinomeScan kinase panel (Homo sapiens, UniProt P52564); details: MEK6, 10 µM; read-out: score (%)
T10 construct: purchased DiscoveRx (KinomeScan)
T10 sequence (P52564 1-334): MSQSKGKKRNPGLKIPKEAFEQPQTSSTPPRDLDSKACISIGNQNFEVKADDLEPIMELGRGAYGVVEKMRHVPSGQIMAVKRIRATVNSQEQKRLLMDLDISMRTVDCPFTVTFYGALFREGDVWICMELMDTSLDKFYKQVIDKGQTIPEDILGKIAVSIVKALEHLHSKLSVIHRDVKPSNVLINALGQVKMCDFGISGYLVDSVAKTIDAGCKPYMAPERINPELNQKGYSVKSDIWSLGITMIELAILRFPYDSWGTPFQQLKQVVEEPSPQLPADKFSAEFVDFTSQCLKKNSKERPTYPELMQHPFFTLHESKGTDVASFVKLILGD

KinomeScan kinase panel [11] = molecular target: T11, KinomeScan kinase panel (Homo sapiens, UniProt Q9UBE8); details: NLK, 10 µM; read-out: score (%)
T11 construct: purchased DiscoveRx (KinomeScan)
T11 sequence (Q9UBE8 1-527): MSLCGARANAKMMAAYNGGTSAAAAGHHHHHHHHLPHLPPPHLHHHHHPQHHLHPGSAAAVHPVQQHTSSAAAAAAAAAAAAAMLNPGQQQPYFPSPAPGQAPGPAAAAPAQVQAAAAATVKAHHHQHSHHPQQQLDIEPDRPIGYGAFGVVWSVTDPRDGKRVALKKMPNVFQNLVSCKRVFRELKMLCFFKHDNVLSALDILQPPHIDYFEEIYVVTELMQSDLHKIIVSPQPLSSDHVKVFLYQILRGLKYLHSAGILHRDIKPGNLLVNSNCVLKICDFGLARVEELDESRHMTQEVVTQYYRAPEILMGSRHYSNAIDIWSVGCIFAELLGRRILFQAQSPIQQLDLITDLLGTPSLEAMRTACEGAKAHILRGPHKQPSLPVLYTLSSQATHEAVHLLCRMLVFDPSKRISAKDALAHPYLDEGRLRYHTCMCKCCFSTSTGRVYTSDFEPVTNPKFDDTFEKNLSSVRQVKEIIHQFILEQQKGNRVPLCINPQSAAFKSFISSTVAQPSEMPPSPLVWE

T6 sequence (Q5VT25 whole entry): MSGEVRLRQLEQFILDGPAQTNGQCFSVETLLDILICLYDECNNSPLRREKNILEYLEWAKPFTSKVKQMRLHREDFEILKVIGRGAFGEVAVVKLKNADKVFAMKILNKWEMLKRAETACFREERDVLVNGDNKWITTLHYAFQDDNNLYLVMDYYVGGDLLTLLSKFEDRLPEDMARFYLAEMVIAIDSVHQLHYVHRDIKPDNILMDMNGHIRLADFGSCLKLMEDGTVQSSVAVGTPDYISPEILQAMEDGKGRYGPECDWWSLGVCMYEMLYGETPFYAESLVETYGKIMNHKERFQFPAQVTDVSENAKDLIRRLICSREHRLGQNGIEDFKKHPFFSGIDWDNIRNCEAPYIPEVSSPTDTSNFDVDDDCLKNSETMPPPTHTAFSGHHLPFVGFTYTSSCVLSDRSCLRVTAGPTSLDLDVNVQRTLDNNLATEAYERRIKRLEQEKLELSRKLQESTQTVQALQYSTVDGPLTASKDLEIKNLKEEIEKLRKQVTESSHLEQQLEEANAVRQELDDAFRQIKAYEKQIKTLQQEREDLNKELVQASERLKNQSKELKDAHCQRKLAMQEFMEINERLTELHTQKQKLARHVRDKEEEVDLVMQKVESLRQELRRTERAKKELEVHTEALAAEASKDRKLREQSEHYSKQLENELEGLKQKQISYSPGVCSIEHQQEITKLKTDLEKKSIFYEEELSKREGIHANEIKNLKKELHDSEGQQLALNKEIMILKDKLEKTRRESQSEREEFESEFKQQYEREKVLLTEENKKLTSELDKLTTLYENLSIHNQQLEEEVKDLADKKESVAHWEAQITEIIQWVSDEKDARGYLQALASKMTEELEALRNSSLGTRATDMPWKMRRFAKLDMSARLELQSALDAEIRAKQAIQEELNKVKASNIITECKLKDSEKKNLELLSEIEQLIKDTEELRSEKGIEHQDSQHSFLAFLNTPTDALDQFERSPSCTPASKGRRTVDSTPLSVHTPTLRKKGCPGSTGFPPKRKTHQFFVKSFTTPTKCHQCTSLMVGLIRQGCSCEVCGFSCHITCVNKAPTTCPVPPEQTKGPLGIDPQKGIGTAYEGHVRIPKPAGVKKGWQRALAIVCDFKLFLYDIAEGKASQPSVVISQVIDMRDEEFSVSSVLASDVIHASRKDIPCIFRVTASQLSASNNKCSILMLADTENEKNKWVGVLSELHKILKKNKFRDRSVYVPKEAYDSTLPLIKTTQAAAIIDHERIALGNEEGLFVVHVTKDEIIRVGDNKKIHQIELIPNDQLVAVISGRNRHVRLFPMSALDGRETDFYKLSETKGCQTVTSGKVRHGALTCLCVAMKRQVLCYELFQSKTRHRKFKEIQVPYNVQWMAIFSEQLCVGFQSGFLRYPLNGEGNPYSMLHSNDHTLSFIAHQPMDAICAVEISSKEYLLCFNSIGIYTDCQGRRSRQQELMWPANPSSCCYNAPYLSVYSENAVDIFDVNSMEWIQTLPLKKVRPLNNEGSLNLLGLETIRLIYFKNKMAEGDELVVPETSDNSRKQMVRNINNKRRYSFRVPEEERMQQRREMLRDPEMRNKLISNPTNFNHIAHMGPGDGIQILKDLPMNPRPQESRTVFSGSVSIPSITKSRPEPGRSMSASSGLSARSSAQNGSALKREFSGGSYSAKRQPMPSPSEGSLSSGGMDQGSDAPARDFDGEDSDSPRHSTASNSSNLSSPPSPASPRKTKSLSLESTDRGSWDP
T9 sequence (Q9BWU1 whole entry): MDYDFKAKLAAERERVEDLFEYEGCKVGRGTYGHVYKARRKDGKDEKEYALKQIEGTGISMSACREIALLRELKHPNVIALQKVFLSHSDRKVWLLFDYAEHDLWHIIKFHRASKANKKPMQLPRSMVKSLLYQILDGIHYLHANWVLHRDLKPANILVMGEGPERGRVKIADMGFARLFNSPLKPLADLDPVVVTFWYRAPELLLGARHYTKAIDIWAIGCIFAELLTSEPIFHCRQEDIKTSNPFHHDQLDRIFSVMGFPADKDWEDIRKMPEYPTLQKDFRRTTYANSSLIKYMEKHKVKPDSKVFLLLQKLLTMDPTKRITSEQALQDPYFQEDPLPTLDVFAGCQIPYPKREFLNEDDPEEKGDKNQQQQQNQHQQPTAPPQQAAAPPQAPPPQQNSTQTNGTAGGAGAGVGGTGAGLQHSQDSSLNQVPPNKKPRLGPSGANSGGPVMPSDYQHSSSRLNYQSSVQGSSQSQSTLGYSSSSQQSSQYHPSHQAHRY
T8 sequence (Q9HBH9 whole entry): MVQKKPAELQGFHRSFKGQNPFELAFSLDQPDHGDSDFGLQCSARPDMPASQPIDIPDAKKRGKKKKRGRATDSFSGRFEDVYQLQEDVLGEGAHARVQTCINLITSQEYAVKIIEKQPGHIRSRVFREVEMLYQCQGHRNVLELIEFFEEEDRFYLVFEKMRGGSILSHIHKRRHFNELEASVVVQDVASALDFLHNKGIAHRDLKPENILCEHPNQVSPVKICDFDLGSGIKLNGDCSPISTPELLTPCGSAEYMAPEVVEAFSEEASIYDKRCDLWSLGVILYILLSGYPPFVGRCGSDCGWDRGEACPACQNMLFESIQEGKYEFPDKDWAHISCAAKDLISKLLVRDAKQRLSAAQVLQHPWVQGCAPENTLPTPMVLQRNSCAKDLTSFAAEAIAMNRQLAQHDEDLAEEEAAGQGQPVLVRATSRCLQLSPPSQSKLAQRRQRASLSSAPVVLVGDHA
T1 sequence (P00533 25-1210 G719S): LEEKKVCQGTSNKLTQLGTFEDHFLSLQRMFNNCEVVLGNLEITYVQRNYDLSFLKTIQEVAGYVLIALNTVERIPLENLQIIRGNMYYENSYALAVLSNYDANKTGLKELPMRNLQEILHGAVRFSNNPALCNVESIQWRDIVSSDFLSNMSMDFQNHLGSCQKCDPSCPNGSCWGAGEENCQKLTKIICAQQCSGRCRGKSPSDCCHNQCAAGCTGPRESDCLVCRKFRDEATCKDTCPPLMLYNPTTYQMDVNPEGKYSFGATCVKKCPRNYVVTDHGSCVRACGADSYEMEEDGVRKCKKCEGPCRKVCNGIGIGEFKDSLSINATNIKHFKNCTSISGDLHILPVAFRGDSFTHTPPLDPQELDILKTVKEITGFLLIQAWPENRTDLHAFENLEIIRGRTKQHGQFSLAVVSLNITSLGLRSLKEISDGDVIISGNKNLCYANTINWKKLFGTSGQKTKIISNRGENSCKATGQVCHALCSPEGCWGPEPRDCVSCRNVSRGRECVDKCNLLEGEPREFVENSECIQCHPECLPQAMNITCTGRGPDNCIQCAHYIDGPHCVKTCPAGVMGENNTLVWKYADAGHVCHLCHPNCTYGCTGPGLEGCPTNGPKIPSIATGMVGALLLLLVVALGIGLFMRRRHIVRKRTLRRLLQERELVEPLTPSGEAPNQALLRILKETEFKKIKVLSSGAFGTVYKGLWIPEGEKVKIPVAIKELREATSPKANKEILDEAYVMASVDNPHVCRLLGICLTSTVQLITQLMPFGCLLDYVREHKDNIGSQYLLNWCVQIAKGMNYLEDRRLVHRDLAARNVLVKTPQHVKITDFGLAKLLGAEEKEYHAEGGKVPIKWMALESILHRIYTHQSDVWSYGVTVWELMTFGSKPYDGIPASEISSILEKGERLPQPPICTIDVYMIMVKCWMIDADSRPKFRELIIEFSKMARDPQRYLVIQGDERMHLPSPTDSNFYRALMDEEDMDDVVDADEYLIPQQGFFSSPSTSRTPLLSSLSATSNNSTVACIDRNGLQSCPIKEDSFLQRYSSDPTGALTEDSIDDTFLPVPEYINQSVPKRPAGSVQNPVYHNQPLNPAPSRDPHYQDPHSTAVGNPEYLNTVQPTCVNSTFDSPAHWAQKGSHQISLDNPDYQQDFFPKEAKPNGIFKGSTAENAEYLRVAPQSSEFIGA

SMILES | score (%) (KinomeScan kinase panel [1]) | remaining binding at 10 µM (KinomeScan kinase panel [2]) [%] | remaining binding at 10 µM (KinomeScan kinase panel [3]) [%] | remaining binding at 10 µM (KinomeScan kinase panel [4]; ABL1(E255K)-phosphorylated) [%] | remaining binding at 10 µM (KinomeScan kinase panel [5]; ABL1(T315I)-nonphosphorylated) [%] | remaining binding at 10 µM (KinomeScan kinase panel [5]; ABL1(T315I)-phosphorylated) [%] | remaining binding at 10 µM (KinomeScan kinase panel [6]) [%] | remaining binding at 10 µM (KinomeScan kinase panel [7]; ABL1(H396P)-nonphosphorylated) [%] | remaining binding at 10 µM (KinomeScan kinase panel [7]; ABL1(H396P)-phosphorylated) [%] | remaining binding at 10 µM (KinomeScan kinase panel [8]) [%] | score (%) (KinomeScan kinase panel [9]) | remaining binding at 10 µM (KinomeScan kinase panel [10]) [%] | remaining binding at 10 µM (KinomeScan kinase panel [11]) [%] | remaining binding at 10 µM (KinomeScan kinase panel [4]; ABL1(E255K)) [%] | remaining binding at 10 µM (KinomeScan kinase panel [5]; ABL1(T315I)) [%] | remaining binding at 10 µM (KinomeScan kinase panel [7]; ABL1(H396P)) [%]
CCN1CCN(Cc2ccc(NC(=O)c3ccc(C)c(C#Cc4cccnc4)c3)cc2C(F)(F)F)CC1 [XMD15-44] | 2.4 | 0 | > 30 | 0.05 | 2.8 | 2.6 | > 30 | 0 | 0 | 0 | 5 | > 30 | 8.2 |  |  | 
CCN1CCN(Cc2ccc(NC(=O)c3ccc(C)c(/C=C/c4cnc5[nH]ccc5c4Cl)c3)cc2C(F)(F)F)CC1 [HG-6-63-01, (E)-3-(2-(4-chloro-1H-pyrrolo[2,3-b]pyridin-5-yl)vinyl)-N-(4-((4-ethylpiperazin-1-yl)methyl)-3-(trifluoromethyl)phenyl)-4-methylbenzamide] | 0.1 | 0.1 | 0.35 |  |  |  | 12 |  |  | 0.75 | 3 | > 30 | 6.8 | 1.3 | 0 | 0.2
CCN1CCN(Cc2ccc(NC(=O)c3ccc(C)c(NC(=O)c4cncc(-c5cccs5)c4)c3)cc2C(F)(F)F)CC1 [ALW-II-41-27] | 0.5 | 0.1 | > 30 |  |  |  | > 30 |  |  | > 30 | 3.8 | > 30 | 7.2 | 7.2 | 0.7 | 0.5
